Results reported in patent US4409210A, “Antibiotic compound” (priority 1982, dated 1983).
Converted amounts (≈) assume the structure as drawn. Like-named read-outs stand apart in the source and are kept apart here. *1 amine or outer side, *2 acyl side, *3 side chain or, on linkers, in order; H or OH if unused. Where a SMILES comes first, the peptide text is derived from it. Bridges are numbered along the chain shown (N, C = ends). [ ]: non-standard residue; d: D form. ξ: configuration not given here. X2 = CCCCCCCCCCCC(CC(=O)[*:1])O[*:2]; ξAsp(3ξ-OH) = NC(C(=O)O)C(O)C(=O)O; X1 = O=C(C1C(O)CCN1[*:1])[*:2]

Tests used:
[1] = test system: Streptococcus pyogenes S-23; assay: MIC, serial two-fold dilution method (aerobic); type: cell-based; conditions: Streptococcus pyogenes S-23; GC medium; inoculum 10^6 CFU/ml
[2] = test system: Streptococcus pyogenes Dick; assay: MIC, serial two-fold dilution method (aerobic); type: cell-based; conditions: Streptococcus pyogenes Dick; GC medium; inoculum 10^6 CFU/ml
[3] = test system: Streptococcus pyogenes A9604; assay: MIC, serial two-fold dilution method (aerobic); type: cell-based; conditions: Streptococcus pyogenes A9604; GC medium; inoculum 10^6 CFU/ml
[4] = test system: Streptococcus pneumoniae IID-Type-I; assay: MIC, serial two-fold dilution method (aerobic); type: cell-based; conditions: Streptococcus pneumoniae IID-Type-I; GC medium; inoculum 10^6 CFU/ml
[5] = test system: Streptococcus pneumoniae A9585; assay: MIC, serial two-fold dilution method (aerobic); type: cell-based; conditions: Streptococcus pneumoniae A9585; GC medium; inoculum 10^6 CFU/ml
[6] = test system: Streptococcus pneumoniae A15069; assay: MIC, serial two-fold dilution method (aerobic); type: cell-based; conditions: Streptococcus pneumoniae A15069; GC medium; inoculum 10^6 CFU/ml
[7] = test system: Neisseria meningitidis A20048; assay: MIC, serial two-fold dilution method (aerobic); type: cell-based; conditions: Neisseria meningitidis A20048; GC medium; inoculum 10^6 CFU/ml
[8] = test system: Haemophilus influenzae A22481; assay: MIC, serial two-fold dilution method (aerobic); type: cell-based; conditions: Haemophilus influenzae A22481; GC medium; inoculum 10^6 CFU/ml
staphylococci = assay: MIC summary, staphylococci; type: cell-based; conditions: against staphylococci
S. aureus Smith = assay: Experimental infection of mice, PD50; type: in vivo; conditions: observed 5 days
S. aureus BX-1633 = type: in vivo, mice; conditions: Exp. Run No. C-1319, observed 5 days
S. pyogenes A20201 = assay: Experimental infection of mice, PD50; type: in vivo; conditions: observed 5 days
C. perfringens A9635 = type: in vivo, mice; conditions: observed 5 days
Blood levels in mice = type: in vivo
Experimental: Blood levels in mice were determined following an intravenous or intramuscular administration of Bu-2517. Blood samples were collected from orbital sinuses and assayed by the paper disc-agar diffusion method using S. lutea PCI 1001 as the test organism. […] Bu-2517 was not absorbed when administered orally. T1 TABLE 7-Blood Levels in Mice? -Blood levels (mcg/ml)? -intravenous dose? intramuscular dose? -Time after? 10? 30? 10? 30? 100? -administration? mg/kg? mg/kg? mg/kg? mg/kg? mg/kg? -1 min 70 224 ? --? --? --? -5 41 162 ? --? --? --? -10 33 131 ? 11 22 --? -15 --? --? --? --? 45 -20 23 68 13 32 --? -30 18 73 14 48 45 -45 18 64 14 41 --? -1 hr 14 50 13 36 47 -1.5 7.9 32 11 35 --? -2 5.6 23 8.9 28 --? -3 3.1 14 5.3 18 55 -5 --? --? <2.0 ? 8.9 --? -7 --? --? --? 3.8 23 -10 --? --? --? --? 15 -24 --? --? --? --? <0.3 -Half life (hr.) 0.81 0.87 1.6 1.8 3.7 -AUC* (mcg.hr/ml) 39 163 ? 40 137 ? 460 ? -

Compound: CCCCCCCCCCCC1CC(=O)N2CCCC2C(=O)NC(CO)C(=O)N2CCCC2C(=O)NC(CCCNC(=N)N)C(=O)NC(C(O)C(=O)O)C(=O)NC(CO)C(=O)N2CCC(O)C2C(=O)NC(C(O)C(=O)O)C(=O)O1 (stereo not drawn) [Bu-2517] (PSPR[ξAsp(3ξ-OH)]S[X1][ξAsp(3ξ-OH)]; linker N-C via X2; configuration not given here)
- minimum inhibitory concentration (MIC) [1]: 1.6 µg/mL (≈ 1.42 µM)
- minimum inhibitory concentration (MIC) [2]: 1.6 µg/mL (≈ 1.42 µM)
- minimum inhibitory concentration (MIC) [3]: 1.6 µg/mL (≈ 1.42 µM)
- minimum inhibitory concentration (MIC) [4]: 0.8 µg/mL (≈ 0.71 µM)
- minimum inhibitory concentration (MIC) [5]: 1.6 µg/mL (≈ 1.42 µM)
- minimum inhibitory concentration (MIC) [6]: 1.6 µg/mL (≈ 1.42 µM)
- minimum inhibitory concentration (MIC) [7]: > 100 µg/mL
- minimum inhibitory concentration (MIC) [8]: > 100 µg/mL
- fold more active than amphomycin (staphylococci): 2-4 fold
- PD50 (mg/kg, im) (S. aureus Smith; Exp. Run No. C-1247, 1.3 × 10^6 cell/mouse, 350 × LD50, im just before challenge): 3.3 mg/kg
- PD50 (mg/kg, im) (S. aureus Smith; Exp. Run No. C-1312, 1.3 × 10^6 cell/mouse, 200 × LD50, im just before challenge): 3.3 mg/kg
- PD50 (mg/kg, im) (S. aureus BX-1633): 3.6 mg/kg
- PD50 (mg/kg, im) (S. pyogenes A20201; Exp. Run No. C-1174, 1.3 × 10^2 cell/mouse, 30 × LD50, im just before challenge): 1.0 mg/kg
- PD50 (mg/kg, im) (S. pyogenes A20201; Exp. Run No. C-1313, 1.3 × 10^2 cell/mouse, 60 × LD50, im just before challenge): 1.5 mg/kg
- PD50 (mg/kg, im) (C. perfringens A9635; Exp. Run No. C-1175, 2.5 × 10^7 cell/mouse, 18 × LD50, im just before challenge): 5.5 mg/kg
- PD50 (mg/kg, im) (C. perfringens A9635; Exp. Run No. C-1318, 2.5 × 10^7 cell/mouse, 11 × LD50, im just before challenge): 6.8 mg/kg
- blood level after 7 hours (Blood levels in mice; intramuscular administration of 30 mg/kg): measurable blood level was still observed
- AUC* (mcg.hr/ml), area under curve (Blood levels in mice; intramuscular dose 10 mg/kg): 40 µg·h/mL
- Half life (Blood levels in mice; intramuscular dose 10 mg/kg): 1.6 h
- Blood levels (Blood levels in mice; intramuscular dose 10 mg/kg, 10 min): 11000 ng/mL
- Blood levels (Blood levels in mice; intramuscular dose 10 mg/kg, 20 min): 13000 ng/mL
- Blood levels (Blood levels in mice; intramuscular dose 10 mg/kg, 30 min): 14000 ng/mL
- Blood levels (Blood levels in mice; intramuscular dose 10 mg/kg, 45 min): 14000 ng/mL
- Blood levels (Blood levels in mice; intramuscular dose 10 mg/kg, 1 hr): 13000 ng/mL
- Blood levels (Blood levels in mice; intramuscular dose 10 mg/kg, 1.5 hr): 11000 ng/mL
- Blood levels (Blood levels in mice; intramuscular dose 10 mg/kg, 2 hr): 8900 ng/mL
- Blood levels (Blood levels in mice; intramuscular dose 10 mg/kg, 3 hr): 5300 ng/mL
- Blood levels (Blood levels in mice; intramuscular dose 10 mg/kg, 5 hr): < 2000 ng/mL
- AUC* (mcg.hr/ml), area under curve (Blood levels in mice; intramuscular dose 30 mg/kg): 137 µg·h/mL
- Half life (Blood levels in mice; intramuscular dose 30 mg/kg): 1.8 h
- Blood levels (Blood levels in mice; intramuscular dose 30 mg/kg, 10 min): 22000 ng/mL
- Blood levels (Blood levels in mice; intramuscular dose 30 mg/kg, 20 min): 32000 ng/mL
- Blood levels (Blood levels in mice; intramuscular dose 30 mg/kg, 30 min): 48000 ng/mL
- Blood levels (Blood levels in mice; intramuscular dose 30 mg/kg, 45 min): 41000 ng/mL
- Blood levels (Blood levels in mice; intramuscular dose 30 mg/kg, 1 hr): 36000 ng/mL
- Blood levels (Blood levels in mice; intramuscular dose 30 mg/kg, 1.5 hr): 35000 ng/mL
- Blood levels (Blood levels in mice; intramuscular dose 30 mg/kg, 2 hr): 28000 ng/mL
- Blood levels (Blood levels in mice; intramuscular dose 30 mg/kg, 3 hr): 18000 ng/mL
- Blood levels (Blood levels in mice; intramuscular dose 30 mg/kg, 5 hr): 8900 ng/mL
- Blood levels (Blood levels in mice; intramuscular dose 30 mg/kg, 7 hr): 3800 ng/mL
- AUC* (mcg.hr/ml), area under curve (Blood levels in mice; intramuscular dose 100 mg/kg): 460 µg·h/mL
- Half life (Blood levels in mice; intramuscular dose 100 mg/kg): 3.7 h
- Blood levels (Blood levels in mice; intramuscular dose 100 mg/kg, 15 min): 45000 ng/mL
- Blood levels (Blood levels in mice; intramuscular dose 100 mg/kg, 30 min): 45000 ng/mL
- Blood levels (Blood levels in mice; intramuscular dose 100 mg/kg, 1 hr): 47000 ng/mL
- Blood levels (Blood levels in mice; intramuscular dose 100 mg/kg, 3 hr): 55000 ng/mL
- Blood levels (Blood levels in mice; intramuscular dose 100 mg/kg, 7 hr): 23000 ng/mL
- Blood levels (Blood levels in mice; intramuscular dose 100 mg/kg, 10 hr): 15000 ng/mL
- Blood levels (Blood levels in mice; intramuscular dose 100 mg/kg, 24 hr): < 300 ng/mL
- AUC* (mcg.hr/ml), area under curve (Blood levels in mice; intravenous dose 10 mg/kg): 39 µg·h/mL
- Half life (Blood levels in mice; intravenous dose 10 mg/kg): 0.81 h
- Blood levels (Blood levels in mice; intravenous dose 10 mg/kg, 1 min after administration): 70000 ng/mL
- Blood levels (Blood levels in mice; intravenous dose 10 mg/kg, 5 min): 41000 ng/mL
- Blood levels (Blood levels in mice; intravenous dose 10 mg/kg, 10 min): 33000 ng/mL
- Blood levels (Blood levels in mice; intravenous dose 10 mg/kg, 20 min): 23000 ng/mL
- Blood levels (Blood levels in mice; intravenous dose 10 mg/kg, 30 min): 18000 ng/mL
- Blood levels (Blood levels in mice; intravenous dose 10 mg/kg, 45 min): 18000 ng/mL
- Blood levels (Blood levels in mice; intravenous dose 10 mg/kg, 1 hr): 14000 ng/mL
- Blood levels (Blood levels in mice; intravenous dose 10 mg/kg, 1.5 hr): 7900 ng/mL
- Blood levels (Blood levels in mice; intravenous dose 10 mg/kg, 2 hr): 5600 ng/mL
- Blood levels (Blood levels in mice; intravenous dose 10 mg/kg, 3 hr): 3100 ng/mL
- AUC* (mcg.hr/ml), area under curve (Blood levels in mice; intravenous dose 30 mg/kg): 163 µg·h/mL
- Half life (Blood levels in mice; intravenous dose 30 mg/kg): 0.87 h
- Blood levels (Blood levels in mice; intravenous dose 30 mg/kg, 1 min after administration): 224000 ng/mL
- Blood levels (Blood levels in mice; intravenous dose 30 mg/kg, 5 min): 162000 ng/mL
- Blood levels (Blood levels in mice; intravenous dose 30 mg/kg, 10 min): 131000 ng/mL
- Blood levels (Blood levels in mice; intravenous dose 30 mg/kg, 20 min): 68000 ng/mL
- Blood levels (Blood levels in mice; intravenous dose 30 mg/kg, 30 min): 73000 ng/mL
- Blood levels (Blood levels in mice; intravenous dose 30 mg/kg, 45 min): 64000 ng/mL
- Blood levels (Blood levels in mice; intravenous dose 30 mg/kg, 1 hr): 50000 ng/mL
- Blood levels (Blood levels in mice; intravenous dose 30 mg/kg, 1.5 hr): 32000 ng/mL
- Blood levels (Blood levels in mice; intravenous dose 30 mg/kg, 2 hr): 23000 ng/mL
- Blood levels (Blood levels in mice; intravenous dose 30 mg/kg, 3 hr): 14000 ng/mL
- absorption, parenterally (Blood levels in mice; intravenous or intramuscular administration): well absorbed
- absorption when administered orally (Blood levels in mice; oral): not absorbed
